According to patent US8354441B2, “Oxazoline derivatives” (Hoffmann-La Roche Inc., priority 2009, dated 2013):

Assays:
[1] = target: T1, mouse TAAR1 (Mus musculus, UniProt Q923Y8); experiment: TAAR1 radioligand binding with [3H]-rac-2-(1,2,3,4-tetrahydro-1-naphthyl)-2-imidazoline, membranes of stably transfected HEK293 cells; conditions: first value of the cell, read-out: Ki (μM) mouse/rat: mouse
T1 construct: expressed in transfected cells; host or cells: HEK293 (ATCC # CRL-1573), stably transfected with pIRESneo2 expression plasmid
T1 sequence (Q923Y8 whole entry): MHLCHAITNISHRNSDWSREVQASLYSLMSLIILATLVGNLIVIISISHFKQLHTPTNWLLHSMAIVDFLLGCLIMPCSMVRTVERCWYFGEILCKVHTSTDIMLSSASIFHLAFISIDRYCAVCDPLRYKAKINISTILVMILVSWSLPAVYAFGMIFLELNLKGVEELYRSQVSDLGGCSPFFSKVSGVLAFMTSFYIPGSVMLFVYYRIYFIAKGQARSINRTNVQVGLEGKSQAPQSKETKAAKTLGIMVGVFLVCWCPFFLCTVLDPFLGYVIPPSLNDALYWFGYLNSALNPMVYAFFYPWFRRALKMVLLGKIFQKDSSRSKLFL
Summary of the method: (§1)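 Competition binding: competitors spanning 10 pM–30 μM displace 60 nM [3H]-rac-2-(1,2,3,4-tetrahydro-1-naphthyl)-2-imidazoline from stably transfected HEK293 membranes (mouse or rat receptor), 30 min, 4 °C, pH 7.0 buffer with Mg2+/Ca2+. Bound label counted after GF/C filtration; 10 μM unlabelled ligand defines non-specific binding.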

[2] = target: T2, rat TAAR1 (Rattus norvegicus, UniProt Q923Y9); experiment: as above; conditions: second value of the cell, read-out: Ki (μM) mouse/rat: rat
T2 construct: expressed in transfected cells; host or cells: HEK293 (ATCC # CRL-1573), stably transfected with pIRESneo2 expression plasmid
T2 sequence (Q923Y9 whole entry): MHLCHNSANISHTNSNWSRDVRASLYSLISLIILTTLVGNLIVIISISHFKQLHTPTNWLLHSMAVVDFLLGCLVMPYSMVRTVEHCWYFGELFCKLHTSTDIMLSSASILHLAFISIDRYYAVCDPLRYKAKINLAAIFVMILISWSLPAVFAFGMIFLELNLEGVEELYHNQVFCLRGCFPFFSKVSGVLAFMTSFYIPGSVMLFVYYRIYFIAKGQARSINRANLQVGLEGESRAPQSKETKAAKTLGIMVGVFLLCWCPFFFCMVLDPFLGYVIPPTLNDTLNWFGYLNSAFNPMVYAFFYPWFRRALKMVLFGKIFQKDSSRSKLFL
Summary of the method: as §1

| SMILES | Ki [1] | Ki [2] |
| --- | --- | --- |
| CCOc1cnc(C(=O)Nc2ccc(CC[C@@H]3N=C(N)O[C@H]3C)cc2)cn1 [Example 218, 5-Ethoxy-pyrazine-2-carboxylic acid {4-[2-((4S,5S)-2-amino-5-methyl-4,5-dihydro-oxazol-4-yl)-ethyl]-phenyl}-amide] | 0.0014 µM | 0.0035 µM |
| CC(C)c1ocnc1C(=O)Nc1ccc(CC[C@H]2COC(N)=N2)cc1 [Example 215, (S)-N-(4-(2-(2-Amino-4,5-dihydrooxazol-4-yl)ethyl)phenyl)-5-isopropyloxazole-4-carboxamide] | 0.0012 µM | 0.0038 µM |
